According to PubChem BioAssay (NCI):
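96-well plates; 48 h exposure; 5 concentrations. Endpoints by linear interpolation between flanking doses. Not reached: highest tested concentration assigned. TGI is the concentration that stops growth completely.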

Experiments:
Assay in all cases: NCI anticancer screen, dose series, 48 h
SW-620 colon = tested on: SW-620 colon
SK-MEL-28 melanoma = tested on: SK-MEL-28 melanoma
MALME-3M melanoma = tested on: MALME-3M melanoma
MDA-MB-435 = tested on: MDA-MB-435
NCI-H226 lung = tested on: NCI-H226 lung
UACC-257 melanoma = tested on: UACC-257 melanoma
U251 CNS = tested on: U251 CNS
MCF7 breast = tested on: MCF7 breast
SNB-19 CNS = tested on: SNB-19 CNS
A498 renal = tested on: A498 renal
CCRF-CEM leukemia = tested on: CCRF-CEM leukemia
SF-295 CNS = tested on: SF-295 CNS
MDA-MB-231 breast = tested on: MDA-MB-231 breast
DU-145 prostate = tested on: DU-145 prostate
TK-10 renal = tested on: TK-10 renal
LOX IMVI melanoma = tested on: LOX IMVI melanoma
ACHN renal = tested on: ACHN renal
OVCAR-3 ovarian = tested on: OVCAR-3 ovarian
HCC-2998 colon = tested on: HCC-2998 colon
UACC-62 melanoma = tested on: UACC-62 melanoma
SK-MEL-5 melanoma = tested on: SK-MEL-5 melanoma
PC-3 prostate = tested on: PC-3 prostate
CAKI-1 renal = tested on: CAKI-1 renal
COLO 205 colon = tested on: COLO 205 colon
HOP-62 NSCLC = tested on: HOP-62 NSCLC
SNB-75 CNS = tested on: SNB-75 CNS
NCI-H522 lung = tested on: NCI-H522 lung
SK-OV-3 ovarian = tested on: SK-OV-3 ovarian
K-562 leukemia = tested on: K-562 leukemia
HS 578T breast = tested on: HS 578T breast
OVCAR-5 ovarian = tested on: OVCAR-5 ovarian
SF-539 CNS = tested on: SF-539 CNS
HCT-15 colon = tested on: HCT-15 colon
HCT-116 colon = tested on: HCT-116 colon
HL-60(TB) leukemia = tested on: HL-60(TB) leukemia
KM12 colon = tested on: KM12 colon
OVCAR-8 ovarian = tested on: OVCAR-8 ovarian
EKVX NSCLC = tested on: EKVX NSCLC
UO-31 renal = tested on: UO-31 renal
HT29 colon = tested on: HT29 colon
NCI-H23 lung = tested on: NCI-H23 lung
SR leukemia = tested on: SR leukemia
HOP-92 NSCLC = tested on: HOP-92 NSCLC
NCI-H460 lung = tested on: NCI-H460 lung
RXF 393 renal = tested on: RXF 393 renal
NCI/ADR-RES ovarian = tested on: NCI/ADR-RES ovarian
786-0 renal = tested on: 786-0 renal
RPMI-8226 leukemia = tested on: RPMI-8226 leukemia
SF-268 CNS = tested on: SF-268 CNS
M14 melanoma = tested on: M14 melanoma
BT-549 breast = tested on: BT-549 breast
A549 NSCLC = tested on: A549 NSCLC
MDA-N = tested on: MDA-N
IGROV1 ovarian = tested on: IGROV1 ovarian
MOLT-4 leukemia = tested on: MOLT-4 leukemia
SK-MEL-2 melanoma = tested on: SK-MEL-2 melanoma
T-47D breast = tested on: T-47D breast
OVCAR-4 ovarian = tested on: OVCAR-4 ovarian
SN12C renal = tested on: SN12C renal

Measured: TGI

Cc1c(NC(=S)Nc2ccc([N+](=O)[O-])cc2)c(=O)n(-c2ccccc2)n1C
not listed: SK-MEL-2 melanoma | T-47D breast | OVCAR-4 ovarian | SN12C renal
> 100 µM: all other assays above

Cc1cn(C2CC(n3cc(Cn4ccc(=O)[nH]c4=O)nn3)C(CO)O2)c(=O)[nH]c1=O (centres undefined)
not listed: MALME-3M melanoma | LOX IMVI melanoma | NCI-H522 lung | K-562 leukemia | EKVX NSCLC | HT29 colon | SR leukemia | NCI-H460 lung | 786-0 renal | IGROV1 ovarian
> 100 µM: all other assays above
